Measured values published in patent publication US9783511B2, “Carbamate benzoxazine propionic acids and acid derivatives for modulation of RORgamma activity and the treatment of disease” (Merck Sharp & Dohme Corp., priority 2013, dated 2017).

Target: human RORgammaT-Ligand Binding Domain (LBD) (Homo sapiens (Human), UniProt P51449)
Experiment: RORγ-Ligand Binding Domain TR-FRET Assay (co-activator peptide SRC1_2 recruitment)
Format: biochemical
Conditions: HIS-tagged RORγ-LBD 3 nM, biotinylated SRC1 LXXLL peptide 100 nM, incubated overnight at 4° C., 665 nm/615 nm ratio
Source text: Activation of RORgammaT activity can be measured using, e.g., a biochemical TR-FRET assay. In such an assay, interaction of cofactor-derived peptides with human RORgammaT-Ligand Binding Domain (LBD) can be measured.
To identify novel antagonists of RORgammaT, an assay was developed which employs the interaction of RORgammaT with its co-activator peptide SRC1_2. […] The RORγ-Ligand Binding Domain TR-FRET Assay was run according to the following protocol.
HIS-tagged RORγ-LBD protein was recombinantly expressed in Escherichia coli. The RORγ-LBD protein was purified by Ni^2+-affinity resin. Purified protein was then diluted in assay buffer (50 mM Tris pH 7.0, 50 mM KCl, 1 mM EDTA, 0.1 mM DTT, 100 μg/mL bovine serum albumin, delipidated) to obtain a RORγ-LBD final concentration of 3 nM.
Compounds to be tested were injected to the 384-well assay plate using Acoustic Droplet Ejection technology by Echo 550 liquid handler (Labcyte, CA).

Sequence of human RORgammaT-Ligand Binding Domain (LBD) (P51449 269-508): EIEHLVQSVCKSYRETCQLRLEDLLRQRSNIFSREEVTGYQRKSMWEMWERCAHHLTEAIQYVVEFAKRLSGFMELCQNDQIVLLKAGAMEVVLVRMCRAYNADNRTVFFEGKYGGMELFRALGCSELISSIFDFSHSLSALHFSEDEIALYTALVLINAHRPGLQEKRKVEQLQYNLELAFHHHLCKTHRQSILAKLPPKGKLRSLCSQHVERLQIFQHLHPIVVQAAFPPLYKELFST

SMILES	IC50
COc1cc(S(=O)(=O)N2C[C@H](C[C@](C)(O)C(=O)O)Oc3ccc(NC(=O)OC(C)(C)C(F)(F)F)cc32)ccc1F (single isomer, unassigned) [Example 18C, (R or S)-3-((S)-4-((4-fluoro-3-methoxyphenyl)sulfonyl)-6-((((1,1,1-trifluoro-2-methylpropan-2-yl)oxy)carbonyl)amino)-3,4-dihydro-2H-benzo[b][1,4]oxazin-2-yl)-2-hydroxy-2-methylpropanoic acid]	25 nM
COc1cc(S(=O)(=O)N2c3cc(NC(=O)OC(C)(C)C(F)(F)F)ccc3O[C@H](CC(C)(C)C(=O)O)[C@@H]2C)ccc1F [Example 27A, 3-[(2R,3S)-4-[(4-fluoro-3-methoxyphenyl)sulfonyl]-3-methyl-6-{[(2,2,2-trifluoro-1,1-dimethylethoxy)carbonyl]ami-no}-3,4-dihydro-2H-1,4-benzoxazin-2-yl]-2,2-dimethylpropanoic acid]	8200 nM
CCOc1sc(C(F)(F)F)nc1S(=O)(=O)N1C[C@H](CCC(=O)O)Oc2ccc(NC(=O)OC(C)(C)C(F)(F)F)cc21 [Example 6CE, 3-[(2S)-4-{[5-ethoxy-2-(trifluoromethyl)-1,3-thiazol-4-yl]sulfonyl}-6-{[(2,2,2-trifluoro-1,1-dimethylethoxy)carbonyl]amino}-3,4-dihydro-2H-1,4-benzoxazin-2-yl]propanoic acid]	67.5 nM
CC(C)(OC(=O)Nc1ccc2c(c1)N(S(=O)(=O)c1cccc(S(F)(F)(F)(F)F)c1)C[C@H](CCC(=O)O)O2)C(F)(F)F [Example 6BD, 3-[(2S)-4-{[3-(pentafluoro-lambda~6~- sulfanyl)phenyl]sulfonyl}-6-{[(2,2,2-trifluoro-1,1-dimethylethoxy)carbonyl]amino}-3,4-dihydro-2H-1,4-benzoxazin-2-yl]propanoic acid]	14.8 nM
C[C@@H](C[C@H]1CN(S(=O)(=O)c2cn(C(F)F)nc2Cl)c2cc(NC(=O)OC(C)(C)C(F)(F)F)ccc2O1)C(=O)O (single isomer, unassigned) [Example 6DE, (R or S)-3-((S)-4-((3-chloro-1-(difluoromethyl)-1H-pyrazol-4-yl)sulfonyl)-6-((((1,1,1-trifluoro-2-methylpropan-2-yl)oxy)carbonyl)amino)-3,4-dihydro-2H-benzo[b][1,4]oxazin-2-yl)-2-methylpropanoic acid]	40.3 nM
CC[C@@H](C[C@H]1CN(S(=O)(=O)c2cccc(C3CC3)c2)c2cc(NC(=O)OC(C)(C)C(F)(F)F)ccc2O1)C(=O)O (single isomer, unassigned) [Example 10F, (R or S)-2-(((S)-4-((3-cyclopropylphenyl)sulfonyl)-6-((((1,1,1-trifluoro-2-methylpropan-2-yl)oxy)carbonyl)amino)-3,4-dihydro-2H-benzo[b][1,4]oxazin-2-yl)methyl)butanoic acid]	13.3 nM
COc1cc(S(=O)(=O)N2C[C@H]([C@@H]3C[C@H]3C(=O)O)Oc3ccc(NC(=O)OC(C)(C)C(F)(F)F)cc32)ccc1F (single isomer, unassigned) [Example 22J, (1R,2S or 1R,2R or 1S,2S or 1S,2R)-2-((S)-4-((4-fluoro-3-methoxyphenyl)sulfonyl)-6-((((1,1,1-trifluoro-2-methylpropan-2-yl)oxy)carbonyl)amino)-3,4-dihydro-2H-benzo[b][1,4]oxazin-2-yl)cyclopropanecarboxylic acid]	13.5 nM
CC(C)(OC(=O)Nc1ccc2c(c1)N(S(=O)(=O)c1ccc(F)c(C(F)(F)F)c1)C[C@H]([C@@H](CC(=O)O)C1CC1)O2)C(F)(F)F (single isomer, unassigned) [Example 21A, (S or R)-3-cyclopropyl-3-((S)-4-((4-fluoro-3-(trifluoromethyl)phenyl)sulfonyl)-6-((((1,1,1-trifluoro-2-methylpropan-2-yl)oxy)carbonyl)amino)-3,4-dihydro-2H-benzo[b][1,4]oxazin-2-yl)propanoic acid]	28 nM
CC(C)(OC(=O)Nc1ccc2c(c1)N(S(=O)(=O)c1ccc(F)c(F)c1)C[C@H](CCC(=O)O)O2)C(F)(F)F [Example 6N, (S)-3-(4-((3,4-difluorophenyl)sulfonyl)-6-((((1,1,1-trifluoro-2-methylpropan-2-yl)oxy)carbonyl)amino)-3,4-dihydro-2H-benzo[b][1,4]oxazin-2-yl)propanoic acid]	14 nM
CC(C)(OC(=O)Nc1ccc2c(c1)N(S(=O)(=O)c1ccc(F)c(C(F)(F)F)c1)C[C@H]([C@@H]1C[C@@H]1C(=O)O)O2)C(F)(F)F [Example 22B, (1S,2R)-2-((S)-4-((4-fluoro-3-(trifluoromethyl)phenyl)sulfonyl)-6-((((1,1,1-trifluoro-2-methylpropan-2-yl)oxy)carbonyl)amino)-3,4-dihydro-2H-benzo[b][1,4]oxazin-2-yl)cyclopropanecarboxylic acid]	13.5 nM

Now those with a lower IC50, led by results:

IC50	SMILES
11.6 nM	Cc1cccc(S(=O)(=O)N2C[C@H](C[C@H](C)C(=O)O)Oc3ccc(NC(=O)OC(C)(C)C(F)(F)F)cc32)c1 (single isomer, unassigned) [Example 6CP, (S or R)-2-methyl-3-((S)-4-(m-tolylsulfonyl)-6-((((1,1,1-trifluoro-2-methylpropan-2-yl)oxy)carbonyl)amino)-3,4-dihydro-2H-benzo[b][1,4]oxazin-2-yl)propanoic acid]
5.87 nM	CC(C)(OC(=O)Nc1ccc2c(c1)N(S(=O)(=O)c1ccc(F)c(C(F)(F)F)c1)C[C@H]([C@H]1C[C@@H]1C(=O)O)O2)C(F)(F)F [Example 22D, (1S,2S)-2-((S)-4-((4-fluoro-3-(trifluoromethyl)phenyl)sulfonyl)-6-((((1,1,1-trifluoro-2-methylpropan-2-yl)oxy)carbonyl)amino)-3,4-dihydro-2H-benzo[b][1,4]oxazin-2-yl)cyclopropanecarboxylic acid]
7.31 nM	Cc1cc(S(=O)(=O)N2C[C@H](CCC(=O)O)Oc3ccc(NC(=O)OC(C)(C)C(F)(F)F)cc32)c(Cl)cc1F [Example 6BA, (S)-3-(4-((2-chloro-4-fluoro-5-methylphenyl)sulfonyl)-6-((((1,1,1-trifluoro-2-methylpropan-2-yl)oxy)carbonyl)amino)-3,4-dihydro-2H-benzo[b][1,4]oxazin-2-yl)propanoic acid]
9.39 nM	COc1cc(S(=O)(=O)N2C[C@H](CC(O)C(=O)O)Oc3ccc(NC(=O)OC(C)(C)C(F)(F)F)cc32)ccc1F (mixture of isomers) [Example 18F, (R and S)-3-((S)-4-((4-fluoro-3-methoxyphenyl)sulfonyl)-6-((((1,1,1-trifluoro-2-methylpropan-2-yl)oxy)carbonyl)amino)-3,4-dihydro-2H-benzo[b][1,4]oxazin-2-yl)-2-hydroxypropanoic acid]
6 nM	CC(C)(OC(=O)Nc1ccc2c(c1)N(S(=O)(=O)c1cccc(Br)c1)C[C@H](CCC(=O)O)O2)C(F)(F)F [Example 6AA, (S)-3-(4-((3-bromophenyl)sulfonyl)-6-((((1,1,1-trifluoro-2-methylpropan-2-yl)oxy)carbonyl)amino)-3,4-dihydro-2H-benzo[b][1,4]oxazin-2-yl)propanoic acid]
11.1 nM	Cc1c(Cl)cc(F)cc1S(=O)(=O)N1C[C@H](CCC(=O)O)Oc2ccc(NC(=O)OC(C)(C)C(F)(F)F)cc21 [Example 6AK, (S)-3-(4-((3-chloro-5-fluoro-2-methylphenyl)sulfonyl)-6-((((1,1,1-trifluoro-2-methylpropan-2-yl)oxy)carbonyl)amino)-3,4-dihydro-2H-benzo[b][1,4]oxazin-2-yl)propanoic acid]
11.9 nM	CCOc1sc(CC)nc1S(=O)(=O)N1C[C@H](C[C@@H](C)C(=O)O)Oc2ccc(NC(=O)OC(C)(C)C(F)(F)F)cc21 (single isomer, unassigned) [Example 6Bo, (R or S)-3-((S)-4-((5-ethoxy-2-ethylthiazol-4-yl)sulfonyl)-6-((((1,1,1-trifluoro-2-methylpropan-2-yl)oxy)carbonyl)amino)-3,4-dihydro-2H-benzo[b][1,4]oxazin-2-yl)-2-methylpropanoic acid]
9.13 nM	COc1cc(S(=O)(=O)N2C[C@H](CC(C)(CO)C(=O)O)Oc3ccc(NC(=O)OC(C)(C)C(F)(F)F)cc32)ccc1F (single isomer, unassigned) [Example 18J, (S or R)-3-((S)-4-((4-fluoro-3-methoxyphenyl)sulfonyl)-6-((((1,1,1-trifluoro-2-methylpropan-2-yl)oxy)carbonyl)amino)-3,4-dihydro-2H-benzo[b][1,4]oxazin-2-yl)-2-(hydroxymethyl)-2-methylpropanoic acid]
9.22 nM	CCOc1sc(CC)nc1S(=O)(=O)N1C[C@H](CC(C)(C)C(=O)O)Oc2ccc(NC(=O)OC(C)(C)C(F)(F)F)cc21 [Example 12P, 3-[(2S)-4-[(5-ethoxy-2-ethyl-1,3-thiazol-4-yl)sulfonyl]-6-{[(2,2,2-trifluoro-1,1-dimethylethoxy)carbonyl]ami-no}-3,4-dihydro-2H-1,4-benzoxazin-2-yl]-2,2-dimethylpropanoic acid]
10.2 nM	CC(C)(OC(=O)Nc1cc(F)c2c(c1)N(S(=O)(=O)c1ccc(F)c(C(F)(F)F)c1)C[C@H](CCC(=O)O)O2)C(F)(F)F [Example 28, (S)-3-(8-fluoro-4-((4-fluoro-3-(trifluoromethyl)phenyl)sulfonyl)-6-((((1,1,1-trifluoro-2-methylpropan-2-yl)oxy)carbonyl)amino)-3,4-dihydro-2H-benzo[b][1,4]oxazin-2-yl)propanoic acid]
